Measurements reported in ChEMBL document CHEMBL5113467, “Design, synthesis and evaluation of 2-(2-oxoethyl)pyrimidine-5-carboxamide derivatives as acetylcholinesterase inhibitors” (Bioorg Med Chem Lett, 2022).
Active and inactive are the calls of the source. The calls are words filed in the database; no cut-off is given here.

Legend:
Acetylcholinesterase [1] = target: T1, Acetylcholinesterase (Homo sapiens, UniProt P22303); test: Inhibition of AChE (unknown origin) using acetylthiocholine iodide as substrate by DTNB reagent based Ellman's method
T1 sequence (P22303 whole entry): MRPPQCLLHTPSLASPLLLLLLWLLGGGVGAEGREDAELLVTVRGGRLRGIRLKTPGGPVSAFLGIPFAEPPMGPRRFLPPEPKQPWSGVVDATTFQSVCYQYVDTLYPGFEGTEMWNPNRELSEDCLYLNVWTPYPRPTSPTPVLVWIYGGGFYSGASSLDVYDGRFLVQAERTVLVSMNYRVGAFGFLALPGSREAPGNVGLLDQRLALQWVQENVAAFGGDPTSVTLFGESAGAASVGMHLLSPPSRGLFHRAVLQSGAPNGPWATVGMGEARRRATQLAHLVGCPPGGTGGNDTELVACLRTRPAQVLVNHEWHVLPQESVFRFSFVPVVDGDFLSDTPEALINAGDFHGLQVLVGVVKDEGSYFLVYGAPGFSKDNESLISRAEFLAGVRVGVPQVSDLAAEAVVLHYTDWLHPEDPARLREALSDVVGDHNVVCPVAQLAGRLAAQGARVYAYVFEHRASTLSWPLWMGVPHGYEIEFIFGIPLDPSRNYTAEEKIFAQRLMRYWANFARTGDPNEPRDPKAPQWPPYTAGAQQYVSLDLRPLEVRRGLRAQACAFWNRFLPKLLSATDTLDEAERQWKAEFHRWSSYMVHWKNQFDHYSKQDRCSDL

Cholinesterase = Cholinesterase (Homo sapiens, UniProt P06276); test: Inhibition of BuChE (unknown origin) using butyrylthiocholine iodide as substrate by DTNB reagent based Ellman's method
Chain of Cholinesterase (P06276 whole entry): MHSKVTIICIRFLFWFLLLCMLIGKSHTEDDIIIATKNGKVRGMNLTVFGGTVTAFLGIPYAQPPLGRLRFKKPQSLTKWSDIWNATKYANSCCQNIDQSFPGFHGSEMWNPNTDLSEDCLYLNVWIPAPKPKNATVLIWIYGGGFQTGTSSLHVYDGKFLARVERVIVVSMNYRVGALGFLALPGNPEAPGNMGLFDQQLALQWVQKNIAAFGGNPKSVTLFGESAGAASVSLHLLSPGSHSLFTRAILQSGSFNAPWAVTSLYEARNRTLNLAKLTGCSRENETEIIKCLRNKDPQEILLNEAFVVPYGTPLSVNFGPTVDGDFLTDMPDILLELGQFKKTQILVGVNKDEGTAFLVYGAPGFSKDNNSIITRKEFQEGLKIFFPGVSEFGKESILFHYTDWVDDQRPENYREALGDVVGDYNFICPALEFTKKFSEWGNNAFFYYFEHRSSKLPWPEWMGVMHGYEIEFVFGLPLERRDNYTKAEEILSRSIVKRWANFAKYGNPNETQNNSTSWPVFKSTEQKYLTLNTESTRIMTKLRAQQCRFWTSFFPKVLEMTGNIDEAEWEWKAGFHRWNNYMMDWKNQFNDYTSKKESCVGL

[2] = target: 5-hydroxytryptamine receptor 4 (Homo sapiens) (UniProt Q13639); test: Displacement of [3H]GR113808 from human 5-HT4 receptor expressed in Chem-1 cell membrane incubated for 60 mins by radiometric scintillation counting analysis relative to control; type: cell membranes; details: filed as agonist
Chain of 5-hydroxytryptamine receptor 4 (Homo sapiens) (Q13639 whole entry): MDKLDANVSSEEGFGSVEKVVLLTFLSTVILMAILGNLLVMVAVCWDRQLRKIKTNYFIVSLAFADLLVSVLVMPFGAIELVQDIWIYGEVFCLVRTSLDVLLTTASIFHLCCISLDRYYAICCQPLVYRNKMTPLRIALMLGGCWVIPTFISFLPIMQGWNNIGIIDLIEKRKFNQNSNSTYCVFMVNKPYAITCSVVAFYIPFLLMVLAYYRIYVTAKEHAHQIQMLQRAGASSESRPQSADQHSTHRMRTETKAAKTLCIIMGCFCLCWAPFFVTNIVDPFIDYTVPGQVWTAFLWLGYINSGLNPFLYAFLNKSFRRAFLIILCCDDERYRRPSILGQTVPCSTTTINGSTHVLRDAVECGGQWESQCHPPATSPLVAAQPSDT

Acetylcholinesterase [3] = target: T1, Acetylcholinesterase; test: Mixed type inhibition of AChE (unknown origin) using acetylthiocholine iodide as substrate by Lineweaver-Burk double reciprocal plot analysis

| SMILES | IC50 (Acetylcholinesterase [1]) | IC50 (Cholinesterase) | inhibition [2] | inhibition (Acetylcholinesterase [3]) |
| --- | --- | --- | --- | --- |
| COc1ccc(C(=O)Cc2ncc(C(=O)N3CCN(Cc4ccccc4)CC3)cn2)cc1 | 17.3 µM | 5.7 µM | – | – |
| COc1ccc(C(=O)Cc2ncc(C(=O)NCc3cccs3)cn2)cc1 | 30.7 µM | 3.45 µM | – | – |
| COc1ccc(C(=O)Cc2ncc(C(=O)NC3CCN(Cc4ccccc4)CC3)cn2)cc1 | 28 µM | 3.7 µM | – | – |
| C/C=C1\[C@H]2C=C(C)C[C@]1(N)c1ccc(=O)[nH]c1C2 [HUPERZINE A] | – | > 10000 µM | – | – |
| COc1ccc(C(=O)Cc2ncc(C(=O)N(C)CCCOc3cccc(OC)c3)cn2)cc1 | 44.9 µM | 8.36 µM | – | – |
| CN(CCCOc1ccc([N+](=O)[O-])cc1)C(=O)c1cnc(CC(=O)c2ccccc2)nc1 | 9.94 µM | 6.08 µM | – | – |
| COc1cc(N)c(Cl)cc1C(=O)CCC1CCN(CC2CCCCC2)CC1 | – | – | 48.3% | – |
| CCOc1ccc(C(=O)Cc2ncc(C(=O)N(C)CCCOc3ccc([N+](=O)[O-])cc3)cn2)cc1 | 6.4 µM | 6.66 µM | – | – |
| COc1cccc(C(=O)Cc2ncc(C(=O)N(C)CCCOc3ccc([N+](=O)[O-])cc3)cn2)c1 | 4 µM | 2.59 µM | – | – |
| CN(CCCOc1ccc([N+](=O)[O-])cc1)C(=O)c1cnc(CC(=O)c2ccc3c(c2)OCO3)nc1 | 0.99 µM | 48.4 µM | – | – |
| COc1ccc(C(=O)Cc2ncc(C(=O)N(C)CCCOc3ccc([N+](=O)[O-])cc3)cn2)cc1OC | 3.79 µM | 5.73 µM | – | – |
| COc1ccc(C(=O)Cc2ncc(C(=O)N(C)CCCOc3ccc(OC)c(OC)c3)cn2)cc1 | 29.8 µM | 8.3 µM | – | – |
| CN(CCCOc1ccc([N+](=O)[O-])cc1)C(=O)c1cnc(CC(=O)c2cccs2)nc1 | 0.88 µM | 10 µM | – | Active |
| COc1ccc(C(=O)Cc2ncc(C(=O)NCc3ccc(OC)c(OC)c3)cn2)cc1 | 10 µM | 30.7 µM | – | – |
| COc1ccc(OCCCN(C)C(=O)c2cnc(CC(=O)c3ccc(OC)cc3)nc2)cc1 | 9.82 µM | 9.16 µM | – | – |
| COc1ccc(C(=O)Cc2ncc(C(=O)N(C)CCCOc3ccc(C(F)(F)F)cc3)cn2)cc1 | 29.8 µM | 6.24 µM | – | – |
| COc1ccc(C(=O)Cc2ncc(C(=O)Nc3ccncc3)cn2)cc1 | 17.9 µM | 31.4 µM | – | – |
| COc1ccc(C(=O)Cc2ncc(C(=O)N(C)CCCOc3c(F)c(F)c(F)c(F)c3F)cn2)cc1 | 5.14 µM | 28.9 µM | – | – |
| COc1ccc(C(=O)Cc2ncc(C(=O)N(C)CCCOc3ccc([N+](=O)[O-])cc3)cn2)cc1 | 4.56 µM | 13.1 µM | – | – |
